GI50 and TGI data for 11 molecules are collected here from PubChem BioAssay (NCI).

Some test systems named below: SK-OV-3 ovarian; SK-MEL-28 melanoma; SNB-19 CNS; HCC-2998 colon; OVCAR-8 ovarian; MCF7 breast; MDA-MB-435; A498 renal; OVCAR-3 ovarian; A549 NSCLC.
Experiment in all cases: growth of human tumour cells (NCI), 48 h

“And” between values parts separate entries of the source, which are not always exact repeats. Identical values can stand only once.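 Where inhibition never reached the appropriate level, the endpoint shown equals the highest concentration tested. Otherwise, values were interpolated linearly from a five-concentration, 48-hour dose response in 96-well plates. GI50: concentration for 50% inhibition of growth. The concentration for full growth arrest is given as TGI.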 Some results are limits rather than exact numbers.

In the case of `COc1ccc2[nH]c(O)c(/C=c3/cc4c(c(-c5ccc(F)c(OC)c5)n3)=Nc3ccccc3-4)c2c1`, the GI50 with SK-OV-3 ovarian is 11.3 µM; in the experiment with SK-MEL-28 melanoma it was 2.06 µM; in the experiment on SNB-19 CNS it was 2.85 µM; in the experiment on HCC-2998 colon, 2.13 µM; with OVCAR-8 ovarian it was 3.22 µM; with MCF7 breast, 1.76 µM. The GI50 with MDA-MB-435 is 2.39 µM; in the experiment with A498 renal it was 4.42 µM; in the experiment on OVCAR-3 ovarian it was 1.99 µM; in the experiment with A549 NSCLC it was 4.37 µM. For the same molecule, the TGI with SK-OV-3 ovarian stood at 26.2 µM; in the experiment on SK-MEL-28 melanoma it was 4.51 µM; in the experiment with SNB-19 CNS, 11.6 µM; with HCC-2998 colon it was 4.62 µM; in the experiment with OVCAR-8 ovarian, 11.8 µM; in the experiment on MCF7 breast it was 4.44 µM. In addition, the TGI in the experiment with MDA-MB-435 is 6.01 µM; with A498 renal it was 19.2 µM; in the experiment with OVCAR-3 ovarian it was 3.58 µM; in the experiment on A549 NSCLC, 19.3 µM.

For `CCCCCCCCCCCCCCCCCCNc1nc(=O)n(C2CC(O)C(COP(=O)(O)O)O2)cc1F` (stereo not drawn), the TGI in the experiment with SK-OV-3 ovarian, in the experiment with SK-MEL-28 melanoma, in the experiment with SNB-19 CNS, with HCC-2998 colon, in the experiment with OVCAR-8 ovarian and in the experiment with MCF7 breast was more than 100 µM each time. Moreover, the TGI in the experiment on MDA-MB-435, in the experiment with A498 renal, in the experiment on OVCAR-3 ovarian and in the experiment on A549 NSCLC was more than 100 µM each time.

Regarding `CC1=C2C(=CO[C@H](C)[C@H]2C)C(=O)C(C(=O)O)=C1O`, the GI50 in the experiment with SK-OV-3 ovarian is 28 µM; with SK-MEL-28 melanoma it was 23.9 µM; in the experiment on SNB-19 CNS it was 27.9 µM; in the experiment with HCC-2998 colon it was 23.7 µM; with OVCAR-8 ovarian, 19.8 µM; in the experiment with MCF7 breast, 24.5 µM. Further, the GI50 was 32.7 µM with A498 renal, 20.2 µM in the experiment with OVCAR-3 ovarian and 31.1 µM in the experiment with A549 NSCLC. In addition, the TGI in the experiment with SK-OV-3 ovarian is 88 µM and 150 µM; in the experiment with SK-MEL-28 melanoma it was 93.5 µM and 54.9 µM; in the experiment with SNB-19 CNS, 55.6 µM and > 67.7 µM; with HCC-2998 colon, 42.6 µM and 57.9 µM; in the experiment on OVCAR-8 ovarian, 43.3 µM and 35.2 µM; in the experiment with MCF7 breast, 52.8 µM and 51.9 µM. The TGI with MDA-MB-435 was 76.1 µM; with OVCAR-3 ovarian it was 43.2 µM and 47 µM; with A549 NSCLC it was 142 µM and > 88.1 µM.

Take `C=C(C)[C@H]1C2=CC(C)=C(O2)[C@@H](O[C@@H]2c3oc(cc3C)[C@H](C(=C)C)[C@H]3C=C(CC[C@H]2C(=C)C)C(=O)O3)[C@H](C(=C)C)CCC2=C[C@H]1OC2=O`: the TGI in the experiment on SK-OV-3 ovarian, with SK-MEL-28 melanoma, with SNB-19 CNS, in the experiment on HCC-2998 colon, in the experiment on OVCAR-8 ovarian and with MCF7 breast was more than 100 µM each time. The TGI in the experiment with MDA-MB-435, in the experiment with A498 renal, with OVCAR-3 ovarian and in the experiment on A549 NSCLC was more than 100 µM in each case.

Take `O=C(N/N=C/C=C/c1ccccc1)c1ccccc1Nc1ccccc1C(=O)N/N=C/C=C/c1ccccc1`: the TGI with SK-OV-3 ovarian, with SK-MEL-28 melanoma, in the experiment on SNB-19 CNS, with HCC-2998 colon, in the experiment with OVCAR-8 ovarian and with MCF7 breast was more than 100 µM throughout. The TGI in the experiment on MDA-MB-435, in the experiment with A498 renal, with OVCAR-3 ovarian and with A549 NSCLC was more than 100 µM each time.

On to `Cn1c(=O)oc2nc(-c3ccccc3)cc(C(F)(F)F)c21`, for which the TGI in the experiment with SK-OV-3 ovarian, in the experiment on SK-MEL-28 melanoma, in the experiment with SNB-19 CNS, in the experiment with HCC-2998 colon, with OVCAR-8 ovarian and in the experiment on MCF7 breast was more than 100 µM each time. Moreover, the TGI with MDA-MB-435 is more than 100 µM; with A498 renal it was 55.7 µM; with OVCAR-3 ovarian, more than 100 µM; in the experiment on A549 NSCLC, more than 100 µM.

Turning to `CC(Oc1ccccc1Cl)C(=O)NN1C(=O)CSC1c1ccccc1` (stereo not drawn), the TGI with SK-OV-3 ovarian, with SK-MEL-28 melanoma, in the experiment on SNB-19 CNS, in the experiment on HCC-2998 colon, with OVCAR-8 ovarian and in the experiment on MCF7 breast was more than 100 µM throughout. For the same molecule, the TGI in the experiment with MDA-MB-435, in the experiment with A498 renal, in the experiment on OVCAR-3 ovarian and in the experiment on A549 NSCLC was more than 100 µM in each case.

Take `NN=C(CC(O)(C(F)(F)Cl)C(F)(F)Cl)CC(O)(C(F)(F)Cl)C(F)(F)Cl`: the TGI in the experiment on SK-OV-3 ovarian, in the experiment with SK-MEL-28 melanoma, with SNB-19 CNS, in the experiment with HCC-2998 colon, with OVCAR-8 ovarian and in the experiment on MCF7 breast was more than 10 µM each time. The TGI with MDA-MB-435, in the experiment on A498 renal, with OVCAR-3 ovarian and in the experiment with A549 NSCLC was more than 10 µM each time.

For `O=C(Nc1ccccc1C(=O)NCc1ccccc1)/C(=C/c1ccccc1)NC(=O)c1ccccc1`, the TGI with SK-OV-3 ovarian, in the experiment with SK-MEL-28 melanoma, in the experiment with SNB-19 CNS, in the experiment on HCC-2998 colon, in the experiment with OVCAR-8 ovarian and in the experiment on MCF7 breast was more than 100 µM throughout. The TGI with MDA-MB-435, in the experiment on A498 renal, with OVCAR-3 ovarian and with A549 NSCLC was more than 100 µM each time.

Regarding `C=C=C(CC(CC(=C)Br)(C(=O)OC)C(=O)OC)S(=O)(=O)c1ccccc1`, the TGI with SK-OV-3 ovarian was 30.2 µM; with SK-MEL-28 melanoma, 3.23 µM; in the experiment on SNB-19 CNS it was 24.9 µM; with HCC-2998 colon, 9.18 µM; in the experiment with OVCAR-8 ovarian, 3.44 µM; in the experiment on MCF7 breast, 16.4 µM. Further, the TGI in the experiment with MDA-MB-435 is 4.17 µM; with A498 renal it was 14.7 µM; in the experiment with OVCAR-3 ovarian, 4.98 µM; with A549 NSCLC, 10.6 µM.

On to `O=[N+]([O-])c1cccc(N=Nc2c(O)c(S(=O)(=O)O)cc3cc(S(=O)(=O)O)ccc23)c1`, for which the TGI with SK-OV-3 ovarian, with SK-MEL-28 melanoma, in the experiment on SNB-19 CNS, in the experiment on HCC-2998 colon, with OVCAR-8 ovarian and with MCF7 breast was more than 100 µM in each case. The TGI with MDA-MB-435, in the experiment on A498 renal, in the experiment with OVCAR-3 ovarian and in the experiment on A549 NSCLC was more than 100 µM in each case.
